Source: ChEMBL document CHEMBL1201862, “PubChem BioAssay data set” (2004)
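Grown in 96-well plates, cells were treated for 48 hours with each compound at five concentrations. Insufficient inhibition: endpoint recorded as highest concentration tested. At the GI50, growth is halved.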 Activity calls are given as the source filed them. Cut-off read from the data, not from the text of the source: active = GI50 up to about 1.1 µM and inactive = higher.

What was measured:
Assay in all cases: DTP human tumour cell line panel, 48 h
[1] = tested on: A498
[2] = tested on: HCC 2998
[3] = tested on: IGROV-1
[4] = tested on: K562
[5] = tested on: KM12
[6] = tested on: MDA-MB-435
[7] = tested on: Malme-3M
[8] = tested on: NCI-H522
[9] = tested on: OVCAR-5
[10] = tested on: PC-3
[11] = tested on: SF-268
[12] = tested on: SK-MEL-2
[13] = tested on: SK-MEL-5
[14] = tested on: SK-OV-3
[15] = tested on: SNB-19
[16] = tested on: Hs-578T

Measured: GI50

c1ccc2c3nnc(c2c1)SCCCSc1nnc(c2ccccc12)SCCCS3
inactive: [1] 61.1 µM | [2] > 100 µM | [3] 47.2 µM | [4] > 100 µM | [5] > 100 µM | [6] > 100 µM | [7] 34.8 µM | [8] 42.5 µM | [9] > 100 µM | [10] 97.7 µM | [11] 18.9 µM | [12] 40.1 µM | [13] 23 µM | [14] > 100 µM | [15] 28.8 µM

O=[N+]([O-])c1ccc2nc(=S)[nH]n2c1
inactive: [1] > 100 µM | [2] > 100 µM | [16] > 100 µM | [3] > 100 µM | [4] > 100 µM | [5] > 100 µM | [6] > 100 µM | [7] > 100 µM | [8] > 100 µM | [9] > 100 µM | [11] > 100 µM | [12] > 100 µM | [13] > 100 µM | [14] > 100 µM | [15] > 100 µM

Cc1cn(CC2=NCCCN2)c(=O)[nH]c1=O
inactive: [1] > 100 µM | [2] > 100 µM | [16] > 100 µM | [3] > 100 µM | [4] > 100 µM | [7] > 100 µM | [8] > 100 µM | [9] > 100 µM | [10] > 100 µM | [11] > 100 µM | [12] > 100 µM | [13] > 100 µM | [14] > 100 µM | [15] > 100 µM

COc1ccc(OC)c2c1ccc1c(C)c3ccccc3c(C)c12
inactive: [1] 61 µM | [2] 15.8 µM | [3] > 100 µM | [4] 51.8 µM | [6] > 100 µM | [7] > 100 µM | [8] 75.9 µM | [9] > 100 µM | [10] > 100 µM | [11] > 100 µM | [12] > 100 µM | [15] > 100 µM

Cc1ccc(C(=O)C2=CN=C3C(=O)N(c4ccccc4)N(C)C3(C)C2=N)cc1 (stereo not drawn)
inactive: [1] > 100 µM | [2] > 100 µM | [3] > 100 µM | [4] > 100 µM | [5] > 100 µM | [6] > 100 µM | [7] > 100 µM | [8] > 100 µM | [9] > 100 µM | [10] > 100 µM | [12] > 100 µM | [13] > 100 µM | [14] > 100 µM

CC1(C)O[C@@H]2[C@@H](COC(C)(C)O[C@H]2C2SCCCS2)O1
inactive: [1] > 100 µM | [2] > 100 µM | [4] > 100 µM | [5] > 100 µM | [6] > 100 µM | [7] > 100 µM | [8] > 100 µM | [9] > 100 µM | [10] > 100 µM | [11] > 100 µM | [12] > 100 µM | [13] > 100 µM | [14] > 100 µM | [15] > 100 µM

Cc1nnc2c3c(-c4ccccc4)c(-c4ccccc4)oc3nc(N(C)C)n12
inactive: [1] 65.2 µM | [2] 29.4 µM | [16] 21.3 µM | [3] 85.1 µM | [4] 36.1 µM | [5] 26.7 µM | [6] 36.5 µM | [8] 97.9 µM | [9] 51.5 µM | [11] 39.5 µM | [13] 35.2 µM | [14] > 100 µM | [15] > 100 µM

CCOP(=O)(OCC)C(Nc1ccc(Br)cc1)c1cccc([N+](=O)[O-])c1 (stereo not drawn)
inactive: [1] 13.3 µM | [2] 17.5 µM | [16] 21.3 µM | [3] 22.1 µM | [4] 12 µM | [5] 12.6 µM | [6] 16.1 µM | [7] 18.2 µM | [8] 13.6 µM | [9] 24.1 µM | [11] 17.7 µM | [12] 16.7 µM | [13] 14.6 µM | [14] 14.6 µM | [15] 24.9 µM

CN(C)/N=N/c1nc2c(c(=O)n(C)c(=O)n2C)n1CC(O)CO (stereo not drawn)
inactive: [2] > 100 µM | [16] > 100 µM | [3] > 100 µM | [4] > 100 µM | [5] > 100 µM | [6] > 100 µM | [7] > 100 µM | [8] > 100 µM | [9] > 100 µM | [10] > 100 µM | [11] > 100 µM | [12] > 100 µM | [13] > 100 µM | [14] > 100 µM | [15] > 100 µM

Nc1c(-c2nc3ccccc3s2)c2ccc([N+](=O)[O-])cc2c(=O)n1-c1cccc(C(=O)O)c1
inactive: [2] 62.5 µM | [16] 27.5 µM | [5] 40.6 µM | [6] 35.6 µM | [8] 37.8 µM | [10] 29.9 µM | [11] 35.5 µM | [12] 20.9 µM | [13] 26.7 µM | [15] 19.8 µM

Cn1c(N)c(Cc2ccc(Cl)cc2)c(=O)[nH]c1=O
inactive: [1] > 100 µM | [16] > 100 µM | [3] > 100 µM | [4] > 100 µM | [5] > 100 µM | [6] > 100 µM | [7] > 100 µM | [8] > 100 µM | [9] > 100 µM | [11] > 100 µM | [12] > 100 µM | [13] > 100 µM | [14] > 100 µM | [15] > 100 µM

COC(=O)[C@H](Cc1c[nH]c2ccccc12)NC(=O)c1ccc(CNC(=O)/C(C)=C/c2ccccc2)cc1
inactive: [1] 22.6 µM | [2] 15.6 µM | [3] 32.1 µM | [4] > 100 µM | [5] 87.7 µM | [6] 36.4 µM | [7] 13 µM | [8] 14.6 µM | [9] > 100 µM | [10] 20.7 µM | [11] 97.5 µM | [12] 12.4 µM | [13] 17.4 µM | [14] > 100 µM | [15] > 100 µM

Cc1cc2c(cc1O)CC[C@@H]1[C@@H]2CC[C@]2(C)[C@@H](O)CC[C@@H]12
inactive: [1] 18.7 µM | [2] 11.4 µM | [16] 2.51 µM | [3] 15.8 µM | [4] 2.58 µM | [5] 4.52 µM | [7] 6.73 µM | [8] 7.45 µM | [9] 21.2 µM | [10] 11.1 µM | [11] 15.5 µM | [12] 5.48 µM | [13] 4.67 µM | [14] 11.5 µM | [15] 12.6 µM

Clc1ccc(COC(Cn2ccnc2)c2ccc(Cl)cc2Cl)c(Cl)c1 (stereo not drawn) [MICONAZOLE]
inactive: [2] 17.1 µM | [16] 13.4 µM | [4] 3.66 µM | [5] 11.8 µM | [6] 3.23 µM | [7] 14.9 µM | [8] 10 µM | [9] 17.7 µM | [10] 7.08 µM | [11] 11.2 µM | [12] 16.2 µM | [14] 14.3 µM | [15] 13.4 µM
